What follows are compounds tested against T1, aryl hydrocarbon receptor (AHR) (Homo sapiens, UniProt P35869) (assay: DRE-Luciferase reporter high-throughput screen (AHR antagonist, VAF347-activated)).
T1 sequence (P35869 11-848): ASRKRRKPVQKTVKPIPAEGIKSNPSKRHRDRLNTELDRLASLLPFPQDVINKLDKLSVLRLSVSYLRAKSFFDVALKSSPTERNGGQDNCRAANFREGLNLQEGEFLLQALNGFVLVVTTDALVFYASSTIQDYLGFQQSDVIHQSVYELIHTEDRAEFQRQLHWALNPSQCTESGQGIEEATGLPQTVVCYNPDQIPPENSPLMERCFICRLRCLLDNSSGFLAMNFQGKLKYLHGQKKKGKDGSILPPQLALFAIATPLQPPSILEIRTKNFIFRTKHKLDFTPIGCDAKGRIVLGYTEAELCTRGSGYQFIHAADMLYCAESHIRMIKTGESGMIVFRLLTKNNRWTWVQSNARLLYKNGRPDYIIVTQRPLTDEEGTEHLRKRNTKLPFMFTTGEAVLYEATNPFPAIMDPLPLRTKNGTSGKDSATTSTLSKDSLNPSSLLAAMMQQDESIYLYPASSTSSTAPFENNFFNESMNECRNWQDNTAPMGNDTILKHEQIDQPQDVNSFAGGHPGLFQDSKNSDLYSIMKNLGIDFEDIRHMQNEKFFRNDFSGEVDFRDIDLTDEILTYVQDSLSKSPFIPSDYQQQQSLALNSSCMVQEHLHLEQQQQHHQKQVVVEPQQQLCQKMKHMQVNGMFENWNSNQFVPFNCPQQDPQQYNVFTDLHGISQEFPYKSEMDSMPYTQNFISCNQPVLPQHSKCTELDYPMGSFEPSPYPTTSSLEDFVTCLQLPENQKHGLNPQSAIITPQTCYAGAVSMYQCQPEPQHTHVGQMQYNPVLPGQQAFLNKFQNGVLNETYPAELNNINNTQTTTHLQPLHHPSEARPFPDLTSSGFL
Description: HepG2 hepatocellular carcinoma cells were transfected with a dioxin-response element (DRE) Firefly luciferase reporter construct. Luciferase transcription was activated with the aryl hydrocarbon receptor (AHR) agonist, VAF347. Addition of an AHR antagonist results in inhibition of the luciferase transcription and a loss of signal in the assay.
HepG2, a hepatocellular carcinoma cell line, was transfected with the dioxin-response element Firefly luciferase reporter construct using the TransIT-transfection system. Prior to transfection, HepG2 cells (Sigma) were cultured at 90% confluency in Eagle's Modified Essential Medium (Sigma)+2 mM Glutamine (Sigma), +1^% Non Essential Amino Acids (Sigma)+10% Fetal Bovine Serum (Hyclone) and harvested and counted (Biorad TC20 cell counter). OptilMEM serum-free media and TransIT (Mirus) were mixed for transfection in 150 mm dishes by adding 240 μL Transit to 3.0 mL OptiMEM, vortexing briefly to mix, and incubating at room temperature for 20 minutes. The DNA mixture was prepared by adding 80 μg plasmid (pGudLuc6.1 plasmid, Garrison et al., (1996) Fundam. Appl. Toxicol., 30, 194-203), inverting to mix, and incubating at room temperature for 30 minutes. 30×10^6 HepG2 cells were seeded in 30 mL media and 3.3 mL of the DNA, OptiMEM, and TransIT mixture was added dropwise to the plate. The plate was mixed by rocking and incubated at 37° C./5% CO2 overnight. The next day, cells were harvested by aspirating media, washing once with sterile phosphate buffered saline (PBS, Gibco), trypsinzing with 0.05% Trypsin (Corning) and harvesting cells with culture medium, and freezing with Cell Freezing Media (Gibco) at 5 50×10^6 cells/vial in 1 mL/vial.
Transiently-transfected frozen HepG2 cells with DRE-Luciferase, were thawed in a 37° C. water bath and resuspended in complete media. 4 μL cells at 15,000 cells per well was transferred into the wells of a 1536-well Alphaplate assay plate (PerkinElmer) using TEMPEST liquid dispenser. The plate was centrifuged at 1000 rpm for 1 minute. 30 nL of the controls (1 μM (S)-2-(6-((2-(1H-indol-3-yl)ethyl)amino)-2-(5-fluoropyridin-3-yl)-9H-purin-9-yl)propan-1-ol or 100% DMSO) were transferred to the assay plate using the Pin Tool on BRAVO. 1 μL of VAF347 (15 nM final concentration) in complete media was added to the wells using TEMPEST. The plate was centrifuged at 1000 rpm for 1 minute and incubated at 37° C./5% CO2 overnight. After incubation, the plate was removed from the incubator and brought to room temperature. 2 μL of room temperature Steady-Glo luciferase detection reagent (Promega) was added to the wells with TEMPEST. The plate was centrifuged at 2000 rpm for 1 minute, sealed with clear plastic seal and kept at room temperature for 15 minutes prior to measuring luminescence on ENVISION.
Approximately 166,000 compounds were screened in 132 1536-well plates in the luciferase reporter gene assay at a final concentration of 12 μM. […] Each compound was tested at 0.1 μM, 1.0 μM, and 10 μM in the DRE luciferase assay and Cell Titer Glo cytotoxicity assay (Promega). […] 512 compounds were selected for 10-point dose-response in the AHR luciferase reporter assay and the Cell Titer Glo cytotoxicity assay.

| Structure (SMILES) | IC50 [nM] |
| --- | --- |
| Cc1ccc(-c2cc(C(=O)NCc3cccnc3)c3cc(Br)ccc3n2)cc1 [155A] | 1000 to 2000 |
| NC(=O)c1cc(-c2ccc(Cl)s2)nc2ccccc12 [156A] | 1000 to 2000 |
| COc1ccc(Nc2ccc3ccccc3n2)cc1Cl [157A] | 1000 to 2000 |
| Cc1nnc(Oc2ccc(Cl)cc2Cl)c2ccccc12 [159A] | 1000 to 2000 |
| COc1nc2ccccc2nc1CCC(=O)NC1CCCCCC1 [161A] | > 2000 |
| CC(NC(=O)c1c(N)n(C)c2ccccc2c1=O)c1ccccc1 (stereo not shown) [165A] | > 2000 |
| CSc1nc(-c2ccccc2)nc2[nH]c(-c3ccccc3)cc(=O)c12 [166A] | 1000 to 2000 |
| O=c1[nH]c2ccccc2nc1NCc1ccc(F)cc1 [168A] | 1000 to 2000 |
| COc1ccc(C(=O)Nc2nc3c(s2)CCCC3)cc1 [171A] | 1000 to 2000 |
| Clc1ccccc1CNc1ccc(-c2nc3ncccc3o2)cc1 [172A] | 1000 to 2000 |
| N#Cc1ccc(OCc2ccc3nonc3c2)cc1 [174A] | > 2000 |
| CC(C)Nc1ccc(-n2nc3ccccc3[n+]2[O-])cc1 [176A] | 1000 to 2000 |
| COc1ccc(Nc2nn(-c3ccccc3)c3c2C(=O)CCC3)cc1 [177A] | 1000 to 2000 |
| Cc1c(C(=O)OC2CCCC2)[nH]c2c1C(=O)CCC2 [179A] | > 2000 |
| Cc1ccc(N2CC[C@@H]3[C@@H]2CCN3c2ncc(F)cn2)nn1 [181A] | 1000 to 2000 |
| CCN1C(=O)C[C@@H]2[C@@H]1CCN2S(=O)(=O)Cc1ccc(C)cc1 [182A] | 1000 to 2000 |
| CC(C)CCNC(=O)c1[nH]nc2c1COc1ccccc1-2 [183A] | > 2000 |
| O=C(c1cc2sc3ccccc3c2s1)N1CCCCC1 [186A] | > 2000 |
| CN1CC(c2ccccc2)=Cc2c1ccc1nonc21 [188A] | 1000 to 2000 |
| N#Cc1c(NC(=O)Nc2ccc(Cl)c(Cl)c2)sc2c1C1CCN2CC1 [192A] | 1000 to 2000 |
| O=C(NCCn1nc(-c2cccs2)ccc1=O)c1cccs1 [194A] | > 2000 |
| Cc1ccc(NC(=O)c2ccc(OC(F)(F)F)cc2)nc1 [compound 10] | 500 to 1000 |
| COC(=O)c1cccc(NC(=O)c2nsc3ccccc23)c1 [compound 33] | 200 to 500 |
| COc1cc(OC)c(NC(=O)c2[nH]nc3c2CSc2ccccc2-3)cc1Cl [compound 34] | 200 to 500 |

| Structure (SMILES) | IC50 [nM] |
| --- | --- |
| Cn1nc(C2CC2)cc1C(=O)Nc1ccc(I)cc1 [compound 36] | 500 to 1000 |
| CC(C)(C)c1cc(C(=O)Nc2ccc3c(c2)CCN3S(C)(=O)=O)nc2ncnn12 [compound 48] | < 200 |
| O=C(Nc1ccc2[nH]c(C(F)(F)F)nc2c1)c1cccn(Cc2ccccc2)c1=O [compound 49] | < 200 |
| CCCOc1ccc(-c2csc(N3CCCC3=O)n2)cc1 [compound 54] | 500 to 1000 |
| COc1ccc(-c2csc(C3=C(N)N(C(C)C)CC3=O)n2)cc1 [compound 55] | 500 to 1000 |
| COc1ccccc1N(C(=O)c1ccc(O)nc1)c1nc(-c2ccc([N+](=O)[O-])cc2)cs1 [compound 56] | 200 to 500 |
| CS(=O)(=O)c1ccc(-c2csc(-c3cccs3)n2)cc1 [compound 61] | 200 to 500 |
| O=C(Cc1cccc(F)c1)Nc1ccc(-c2nccs2)cc1 [compound 62] | 500 to 1000 |
| COc1ccc(CC(=O)Nc2ccc(-c3nccs3)cc2)cc1S(=O)(=O)N1CCOCC1 [compound 63] | 500 to 1000 |
| Clc1ccc(-c2ncc(-c3cc[nH]n3)s2)cc1 [compound 64] | 500 to 1000 |
| COc1ccnc(N2CCN(c3ccc(Cl)cc3)CC2)c1C#N [compound 80] | < 200 |
| FC(F)(F)c1cnc(-c2cnc(-c3ccccn3)nc2)c(Cl)c1 [compound 87] | 500 to 1000 |
| CN(C)c1cccc(-c2nnc(-c3ccc(C(F)(F)F)cc3)[nH]2)c1 [compound 97] | 200 to 500 |
| CN(C)C(=O)Oc1ccc(-c2cn3cc(C(F)(F)F)ccc3n2)cc1 [compound 103] | 500 to 1000 |
| C1=C(c2ccccc2)CCN(c2ccc3nnnn3n2)C1 [compound 110] | 500 to 1000 |
| COc1ccc(N2CCN(c3nc(C(F)(F)F)cs3)CC2)cc1 [compound 111] | 500 to 1000 |
| CN1/C(=N/c2ccccc2)SCC1(O)c1ccc([N+](=O)[O-])cc1 (stereo not shown) [compound 142] | 200 to 500 |
| CC(=O)N1CC=C(c2ccc(OCc3ccc(C#N)cc3)cc2)CC1 [compound 143] | 200 to 500 |
| c1cncc(-c2noc(-c3cc(-c4cccs4)[nH]n3)n2)c1 [compound 144] | 500 to 1000 |
| CN(C)c1ccc(-c2nnc(-c3cccs3)o2)cc1 [compound 149] | 500 to 1000 |
| O=C(Nc1cnc2ccc(C(F)(F)F)cn2c1=O)OCc1ccccc1 [compound 151] | 500 to 1000 |
| COc1ccc2c(c1)-c1cccc([N+](=O)[O-])c1CC2C#N (stereo not shown) [compound 152] | 500 to 1000 |
| CN(CC(=O)NC(=O)Nc1ccccc1)Cc1ccc(Cl)s1 [compound 153] | 500 to 1000 |
| N#Cc1ccccc1COc1ccc(-n2cnnn2)cc1 [compound 154] | 500 to 1000 |

The remaining lines, values ahead:

| IC50 [nM] | Structure (SMILES) |
| --- | --- |
| 1000 to 2000 | Cc1cc(C)c2cc(C#N)c(Oc3cccnc3)nc2c1 [158A] |
| 1000 to 2000 | Cc1ccc(NC(=O)CSc2nnc(C)c3ccccc23)cc1 [160A] |
| 1000 to 2000 | CCCc1c(C)nc(Nc2nc(C)c3cc(C)cc(C)c3n2)[nH]c1=O [163A] |
| 1000 to 2000 | Cc1ccc(S(=O)(=O)N=C(N)Nc2nc(C)c3cc(C)ccc3n2)cc1 [164A] |
| > 2000 | O=c1cc(NCc2cccc(C(F)(F)F)c2)nc2ccc(Cl)cn12 [167A] |
| 1000 to 2000 | Cc1ccc(-c2cc(-c3ccccc3)c3c(N)c(S(C)(=O)=O)sc3n2)cc1 [169A] |
| 1000 to 2000 | CCN(CC)c1ncnc2sc(-c3ccccc3)cc12 [170A] |
| 1000 to 2000 | CNC(=O)N(C)C(=O)c1cnc2onc(-c3ccc(C)cc3)c2c1 [173A] |
| > 2000 | C=C(Cc1nnc(C(C)C)s1)c1cn(CCOC)cc2c(=O)n(-c3ccccc3)nc1-2 [175A] |
| > 2000 | C#CCn1cnc2c(nnn2-c2ccc(C)c(Cl)c2)c1=O [178A] |
| > 2000 | CCCNC(=O)c1cc2sc(Cl)cc2n1C [180A] |
| 1000 to 2000 | CCCNC(=O)c1cc2cc3ccc(C)cc3nc2o1 [184A] |
| > 2000 | COc1cccc2c1cc1c(O)nnc(C)n12 [185A] |
| > 2000 | Cc1cc2ccccc2n2c(SCC(=O)Nc3ccccc3F)nnc12 [187A] |
| > 2000 | COc1ccc2cc(C)c3nn(CCNC(=O)c4sc(C)nc4C)c(=O)n3c2c1 [191A] |
| 1000 to 2000 | Cn1c(N)c(C(=O)CSc2ccc(F)cc2)c(=O)n(C)c1=O [195A] |
| > 2000 | CCOC(=O)c1ccc(Nc2nc(=O)c3cccnc3s2)cc1 [196A] |
| 1000 to 2000 | CCc1cc2c(=O)c(-c3nc(C)cs3)coc2c(CN2CCCC(c3cccnc3)C2)c1O (stereo not shown) [197A] |
| 200 to 500 | Cc1cccc(-n2ccc(=O)c(C(=O)Nc3ccccc3F)n2)c1 [compound 31] |
| 200 to 500 | COCCN1Cc2cccc(C(=O)Nc3ccc(C)c(F)c3)c2C1=O [compound 32] |

| IC50 [nM] | Structure (SMILES) |
| --- | --- |
| 500 to 1000 | CCCn1ncc(C(=O)Nc2ccc(N3CCCCC3)c(F)c2)c1C [compound 35] |
| 500 to 1000 | Cc1csc(Nc2nc(N)c(C(=O)Nc3cc(Cl)ccc3F)o2)n1 [compound 37] |
| 500 to 1000 | CCOC(=O)c1sc(NC(=O)c2ccc3ncsc3c2)cc1C [compound 39] |
| < 200 | CCOC(=O)c1sc(NC(=O)c2cn3ccccc3n2)cc1C [compound 40] |
| 500 to 1000 | CCOC(=O)c1sc(NC(=O)c2sccc2C)cc1C [compound 44] |
| < 200 | COc1ccccc1-c1nc(-c2ccc(CN(C)C(C)=O)cc2)cs1 [compound 50] |
| 200 to 500 | O=[N+]([O-])c1cccc(-c2csc(-c3cccc(-n4cnc(Cl)c4Cl)c3)n2)c1 [compound 51] |
| 200 to 500 | CCNC(=O)c1sc2ncc(C(=O)c3ccc(C)cc3)n2c1C [compound 66] |
| 500 to 1000 | Cc1cn2cc(-c3ccc(F)cc3)nc2s1 [compound 67] |
| 200 to 500 | CN(C)c1nc(N2CCN(c3ccc(F)cc3)CC2)cc(C(F)(F)F)n1 [compound 81] |
| 200 to 500 | Cc1cc2cc(Nc3nccc(C(F)(F)F)n3)ccc2[nH]1 [compound 84] |
| 500 to 1000 | Cc1ccc(N)cc1Nc1nccc(-c2cccnc2)n1 [compound 85] |
| 200 to 500 | COC(=O)c1cnn(-c2cc(Nc3c(F)cccc3F)ncn2)c1N [compound 86] |
| 200 to 500 | CC(=O)N(CCn1nc(C)cc1C)c1nc2c(F)cc(F)cc2s1 [compound 93] |
| 200 to 500 | CCOC(=O)c1c(C)[nH]c(-c2cn3ccccc3n2)c1C [compound 102] |
| 500 to 1000 | Fc1ccc(-c2cn(-c3ccc4nnc(C(F)(F)F)n4n3)cn2)cc1 [compound 108] |
| 500 to 1000 | CC(C)CCNC(=O)c1cc2c(=O)n(C)c3ccccc3c2s1 [compound 145] |
| 500 to 1000 | CCC(=O)N1CCc2nc(-c3ccccc3)sc2C1 [compound 147] |
| 500 to 1000 | CC(C)C(=O)Nc1ccc2c(c1)C(=O)c1c-2nn(C)c1C(C)(C)C [compound 148] |
| 500 to 1000 | FCCCSc1nnc(-c2cc3cc4ccccc4nc3s2)o1 [compound 155] |

Source: US20210220408A1, “ARYL HYDROCARBON RECEPTOR ANTAGONISTS AND METHODS OF USE” (Magenta Therapeutics Inc., priority 2018, published 2021)
